According to patent US6362166B1, “Antipicornaviral compounds and methods for their use and preparation” (Agouron Pharmaceuticals, Inc., priority 1996, dated 2002):
Where two headings read alike, the source gives them in different places.

How the values were obtained:
[1] = Cytotoxicity in mock-infected HI-HeLa cells (antirhinoviral assay, XTT); format: cell-based; conditions: human; mock-infected HI-HeLa cells; two days; XTT; read-out: CC50
[2] = molecular target: T1, Recombinant Rhinovirus 3C protease (RVP) serotype 16 (Human rhinovirus 16, UniProt Q82122); experiment: Inhibition of Rhinovirus Protease (fluorescence resonance energy transfer assay), serotype 16; format: biochemical, human rhinovirus (HRV); conditions: for kinact/KI: pH 7.6, read-out: kobs/I
T1 construct: Recombinant Rhinovirus 3C proteases from serotypes 14, 16, 2 or 89; made in house
Experimental: Stock solution (50 mM, in DMSO) of various compounds were prepared; dilutions were in the same solvent. Recombinant Rhinovirus 3C proteases from serotypes 14, 16, 2 or 89 were prepared by the following standard chromatographic procedures: (1) ion exchange using Q Sepharose Fast Flow from Pharmacia; (2) affinity chromatography using Affi-Gel Blue from Biorad; and (3) sizing using Sephadex G-100 from Pharmacia. Assays contained 2% DMSO, 50 mM tris pH 7.6, 1 mM EDTA, a compound at the indicated concentrations, approximately 1 μM substrate, and 50-100 nM protease. […] The kobs/I values were obtained from reactions initiated by addition of enzyme rather than substrate. RVP activity is measured in the fluorescence resonance energy transfer assay. The substrate was (N-terminal) DABCYL-([…]Gyl)-EDANS. In the uncleaved peptide, the EDANS fluorescence was quenched by the proximal DABCYL moeity. When the peptide was cleaved, the quenching was relieved, and activity was measured as an increase in fluorescence signal.
In the above table, all data is RVP serotype-14 unless otherwise noted in parentheses. All strains of human rhinovirus (HRV) were purchased from American Type Culture Collection (ATCC), except for serotype 14, which was produced from the infectious cDNA clone constructed and supplied to us by Dr. Roland Rueckert at the Institute for Molecular Virology, University of Wisconsin, Madison, Wisc. […] The data in the column designated kobs/I was measured from progress curves in enzyme start experiments.

HRV-14 = experiment: Antirhinoviral HI-HeLa Cell Culture Assay (Cell Protection Assay, XTT dye reduction); format: cell-based, human rhinovirus (HRV) serotype-14
Procedure, shortened: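 HI-HeLa cells infected with HRV-14 at m.o.i. 0.13 or mock-infected, then incubated with compounds for two days. Cell protection read by XTT/PMS formazan at 450/650 nm; therapeutic index = CC50/EC50.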

[3] = molecular target: T2, Recombinant Rhinovirus 3C protease (RVP) serotype-14 (Human rhinovirus 14, UniProt P03303); experiment: Inhibition of Rhinovirus Protease (fluorescence resonance energy transfer assay), serotype 14; format: biochemical, human rhinovirus (HRV); conditions: for kinact/KI: pH 7.6, read-out: kobs/I
T2 construct: Recombinant Rhinovirus 3C proteases from serotypes 14, 16, 2 or 89; made in house

HI-HeLa cells = experiment: Cytotoxicity in mock-infected HI-HeLa cells (antirhinoviral assay, XTT); format: cell-based
[4] = Rhinovirus B, HRV14, 48 h, HI-HeLa cells infected with HRV-14, m.o.i. 0.13, two days, XTT, read-out: EC50
[5] = RVP serotype 16, progress curves in enzyme start experiments

T1 sequence (Q82122 1511-1693): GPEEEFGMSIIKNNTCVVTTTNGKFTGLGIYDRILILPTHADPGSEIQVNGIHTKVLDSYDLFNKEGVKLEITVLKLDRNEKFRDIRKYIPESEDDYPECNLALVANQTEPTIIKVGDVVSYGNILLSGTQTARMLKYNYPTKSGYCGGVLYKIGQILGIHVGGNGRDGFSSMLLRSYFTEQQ
T2 sequence (P03303 1538-1719): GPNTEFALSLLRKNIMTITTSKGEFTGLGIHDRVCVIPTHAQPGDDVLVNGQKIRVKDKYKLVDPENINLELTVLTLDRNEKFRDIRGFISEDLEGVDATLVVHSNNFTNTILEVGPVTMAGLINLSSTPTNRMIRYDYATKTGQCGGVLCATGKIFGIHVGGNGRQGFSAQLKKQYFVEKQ

| SMILES | CC50 at 2 days [1] | EC50 (HRV-14; [4]) | Ki [3] | kinact/KI [3] | also measured |
| --- | --- | --- | --- | --- | --- |
| COC(=O)/C=C\[C@H](CCC(N)=O)NC(=O)[C@H](Cc1ccccc1)NC(=O)[C@H](CC(C)C)NC(=O)OCc1ccccc1 [Compound 7, Methyl-3-(CBZ-L-Leu-L-Phe-L-Gln)-Z-Propenoate] | > 320 µM | 3.2 µM | 9.5 µM | 2400 M⁻¹ s⁻¹ | inhibition at 1 µM ([2]; RVP serotype 16, 1 μM compound, 10 minute preincubation with 50 nM RVP, read-out: INHIB (percent inhibition)): 42% |
| CCOC(=O)/C=C/C(CCC(N)=O)NC(=O)C(Cc1ccccc1)NC(=O)C(CC(C)C)NC(=O)c1ccc2ccccc2c1 (centres unmarked) [Compound 44] | > 320 µM | 1 µM | 12.6 µM | 21000 M⁻¹ s⁻¹ | – |
| CC(C)C[C@H](NC(=O)OCc1ccccc1)C(=O)N[C@@H](Cc1ccccc1)C(=O)N[C@H](/C=C/CCl)CCC(N)=O [Compound 74] | 250 µM | 10 µM | 2.4 µM | – | – |
| CC(C)C[C@H](NC(=O)OCc1ccccc1)C(=O)N[C@@H](Cc1ccccc1)C(=O)N[C@H](/C=C/C(=O)OC1CCCCC1)CCC(N)=O [Compound 25] | > 100 µM | 3.1 µM | 5.5 µM | 3700 M⁻¹ s⁻¹ | – |
| CCOC(=O)/C=C/[C@H](CCC(N)=O)NC(=O)[C@H](Cc1ccccc1)NC(=O)[C@H](CC(C)C)NC(=O)OCc1ccncc1 [Compound 36] | > 320 µM | 5.6 µM | 15 µM | 12000 M⁻¹ s⁻¹ | – |
| CCOC(=O)/C=C/[C@H](CCC(N)=O)NC(=O)[C@H](Cc1ccccc1)NC(=O)[C@H](CC(C)C)NC(=O)CSc1ccccn1 [Compound 118] | > 320 µM | 17.8 µM | 39 µM | 1450 M⁻¹ s⁻¹ | – |
| CCOC(=O)/C=C/[C@H](CCC(N)=O)NC(=O)[C@H](Cc1ccccc1)NC(=O)[C@H](CC(C)C)NC(C)=O [Compound 107] | > 320 µM | 13.5 µM | 13.5 µM | 3660 M⁻¹ s⁻¹ | – |
| CC(C)C[C@H](NC(=O)OCc1ccccc1)C(=O)N[C@@H](Cc1ccccc1)C(=O)N[C@H](/C=C/C(=O)N1CCc2cc(F)ccc21)CCC(N)=O [Compound 87] | > 320 µM | 10.6 µM | 6 µM | 5430 M⁻¹ s⁻¹ | – |
| CCOC(=O)/C=C/[C@H](CCC(N)=O)NC(=O)[C@H](Cc1ccccc1)NC(=O)[C@H](CC(C)C)NC(=O)CO [Compound 111] | > 320 µM | 29.5 µM | 5 µM | 2060 M⁻¹ s⁻¹ | – |
| CC(C)C[C@H](NC(=O)OCc1ccccc1)C(=O)N[C@@H](Cc1ccccc1)C(=O)N[C@H](/C=C/C(=O)N1CCc2cc(S(=O)(=O)N(C)C)ccc21)CCC(N)=O [Compound 88] | > 160 µM | 8.8 µM | > 30 µM | 8960 M⁻¹ s⁻¹ | – |
| CC(C)CC(NC(=O)OCc1ccccc1)C(=O)NC(Cc1ccccc1)C(=O)NC(C=C1CCOC1=O)CCC(N)=O (centres unmarked) [Compound 90] | – | – | – | – | CC50 (HI-HeLa cells): > 320 µM; kobs/I [2, 5]: 3,600 M-1 sec-1; EC50 (HRV-14; HI-HeLa cells infected with HRV-14, m.o.i. 0.13, two days, XTT, read-out: EC50): 5.2 µM; kobs/I ([3]; RVP serotype-14, progress curves in enzyme start experiments): 10,918 M-1 sec-1 |
| CC(C)C[C@H](NC(=O)OCc1ccccc1)C(=O)N[C@@H](Cc1ccccc1)C(=O)N[C@H](/C=C/C(=O)OCC(C)(C)C)CCC(N)=O [Compound 163] | > 100 µM | 0.5 µM | 3.6 µM | 9800 M⁻¹ s⁻¹ | – |
| CC(C)CC(NC(=O)OCc1ccccc1)C(=O)NC(Cc1ccccc1)C(=O)NC(C=C1CCCOC1=O)CCC(N)=O (centres unmarked) [Compound 130] | > 100 µM | 15.8 µM | 0.03 to 0.04 µM | – | – |
| CCOC(=O)/C=C/[C@H](CCC(N)=O)NC(=O)[C@H](Cc1ccc(C)cc1)NC(=O)[C@@H](NC(=O)SC1CCCC1)C(C)C [Compound 183] | > 100 µM | – | 0.55 µM | 500000 M⁻¹ s⁻¹ | kinact/KI [2, 5]: 60000 M⁻¹ s⁻¹; EC50 (HRV-14; Rhinovirus B, HRV14, 48 h): 0.03 µM |
| CC(C)C[C@H](NC(=O)OCc1ccccc1)C(=O)N[C@@H](Cc1ccccc1)C(=O)N[C@H](/C=C/C(=O)N1CCc2cccc(Cl)c21)CCC(N)=O [Compound 91] | > 320 µM | 56 µM | 10 µM | 5430 M⁻¹ s⁻¹ | – |
| CC(C)C[C@H](NC(=O)OCc1ccccc1)C(=O)N[C@@H](Cc1ccccc1)C(=O)N[C@H](/C=C/C(=O)n1ccc2ccccc21)CCC(N)=O [Compound 89] | 29 µM | 1.8 µM | 5 µM | 53400 M⁻¹ s⁻¹ | kinact/KI [2, 5]: 2800 M⁻¹ s⁻¹ |

| SMILES | CC50 at 2 days [1] | EC50 (HRV-14; [4]) | Ki [3] | kinact/KI [3] | also measured |
| --- | --- | --- | --- | --- | --- |
| CCOC(=O)/C=C/[C@H](CCC(N)=O)NC(=O)[C@H](Cc1ccccc1)NC(=O)CNC(=O)OCc1ccccc1 [Compound 102] | > 320 µM | 5.6 µM | 12 µM | 3840 M⁻¹ s⁻¹ | – |
| CC(C)C[C@H](NC(=O)OCc1ccccc1)C(=O)N[C@@H](Cc1ccccc1)C(=O)N[C@H](/C=C/c1nccn1C)CCC(N)=O [Compound 65] | > 320 µM | 158 µM | 2.9 µM | – | – |
| CCOC(=O)/C=C/[C@H](CCC(N)=O)NC(=O)[C@H](Cc1ccccc1)NC(=O)[C@H](CC(C)C)NC(=O)c1ccc(Oc2ccccc2)cc1 [Compound 104] | > 320 µM | 5.2 µM | 2.5 µM | 8000 M⁻¹ s⁻¹ | Ki [2]: 1500 nM |
| CC(C)C[C@H](NC(=O)OCc1ccccc1)C(=O)N[C@@H](Cc1ccccc1)C(=O)N[C@H](/C=C/C(=O)N(C)O)CCC(N)=O [Compound 138] | 41.7 µM | > 41.7 µM | 20 µM | 1770 M⁻¹ s⁻¹ | – |
| CCOC(=O)/C=C/[C@H](CCC(N)=O)NC(=O)[C@H](Cc1cnc[nH]1)NC(=O)[C@H](CC(C)C)NC(=O)OCc1ccccc1 [Compound 112] | > 320 µM | – | 13 µM | 6800 M⁻¹ s⁻¹ | EC50 (HRV-14; Rhinovirus B, HRV14, 48 h): 27 µM |
| CCOC(=O)/C=C/[C@H](CCC(N)=O)NC(=O)[C@H](Cc1ccccc1)NC(=O)[C@@H](NC(=O)SCC)C(C)C [Compound 180] | > 100 µM | 0.056 µM | 0.42 µM | 300000 M⁻¹ s⁻¹ | – |
| CC(C)C[C@H](NC(=O)OCc1ccccc1)C(=O)N[C@@H](Cc1ccccc1)C(=O)N[C@H](/C=C\CCl)CCC(N)=O [Compound 78] | 79.4 µM | 10 µM | 7 µM | – | – |
| CC(C)CC(NC(=O)OCc1ccccc1)C(=O)NC(Cc1ccccc1)C(=O)NC(C=Cc1ccccc1C#N)CCC(N)=O (centres unmarked) [Compound 145] | > 320 µM | > 320 µM | 10 to 20 µM | – | – |
| CCOC(=O)/C=C/[C@H](CCC(N)=O)NC(=O)[C@H](Cc1ccc(C#N)cc1)NC(=O)[C@H](CC(C)C)NC(=O)OCc1ccccc1 [Compound 132] | > 320 µM | 5.6 µM | 10 µM | 10800 M⁻¹ s⁻¹ | – |
| CCOC(=O)/C=C/[C@H](COC(N)=O)NC(=O)[C@H](Cc1ccccc1)NC(=O)[C@H](CC(C)C)NC(=O)OCc1ccccc1 [Compound 56] | > 320 µM | 1.6 µM | 15 µM | 5620 M⁻¹ s⁻¹ | – |
| CC(C)C[C@H](NC(=O)OCc1ccccc1)C(=O)N[C@@H](Cc1ccccc1)C(=O)N[C@H](/C=C/C(=O)OC(C)C)CCC(N)=O [Compound 17, Isopropyl-3-(CBZ-L-Leu-L-Phe-L-Gln)-E-Propenoate] | > 100 µM | 1.8 µM | 1.25 µM | 6100 M⁻¹ s⁻¹ | – |
| CCOC(=O)/C=C/[C@H](CCC(N)=O)NC(=O)[C@H](Cc1ccccc1)NC(=O)[C@@H](NC(=O)OCc1ccccc1)C(C)(C)C [Compound 151] | 178 µM | 0.32 µM | > 4.8 µM | 39800 M⁻¹ s⁻¹ | – |
| CCOC(=O)/C=C/[C@H](CCC(N)=O)NC(=O)[C@H](Cc1ccccc1)NC(=O)[C@H](CC(C)C)NC(=O)CCO [Compound 115] | > 320 µM | 19 µM | 11 µM | 4480 M⁻¹ s⁻¹ | – |
| CON=C/C=C/[C@H](CCC(N)=O)NC(=O)[C@H](Cc1ccccc1)NC(=O)[C@H](CC(C)C)NC(=O)OCc1ccccc1 [Compound 83] | > 320 µM | 100 µM | 8 µM | – | – |
| CCOC(=O)/C=C/[C@H](CCC(N)=O)NC(=O)[C@H](Cc1ccccc1)NC(=O)[C@@H](NC(=O)OCc1ccccc1)C(C)O (some centres unmarked) [Compound 152] | > 320 µM | 1.78 µM | 3.2 µM | 38900 M⁻¹ s⁻¹ | – |
